pEC50: −log10 of the molar value. Read-outs that look alike come from different tables or passages of the source.
Experiments:
Assay type in all cases: cell-based
[1] = molecular target: T1, human S1PR4 (Homo sapiens, UniProt O95977); test: Intracellular Ca2+ release (FLIPR) agonist potency, S1P4
T1 construct: host or cells: CHO-K1
T1 sequence (O95977 1-384): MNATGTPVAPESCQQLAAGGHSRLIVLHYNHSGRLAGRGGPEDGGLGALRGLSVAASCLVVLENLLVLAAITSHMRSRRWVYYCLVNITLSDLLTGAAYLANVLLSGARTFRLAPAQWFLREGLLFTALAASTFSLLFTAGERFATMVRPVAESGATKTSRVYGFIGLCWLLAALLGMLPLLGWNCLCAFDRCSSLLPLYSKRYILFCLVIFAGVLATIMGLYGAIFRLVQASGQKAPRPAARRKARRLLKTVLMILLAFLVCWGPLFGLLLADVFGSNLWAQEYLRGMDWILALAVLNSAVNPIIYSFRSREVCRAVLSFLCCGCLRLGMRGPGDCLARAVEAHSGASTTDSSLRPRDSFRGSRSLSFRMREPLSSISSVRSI
Method in brief: (§1)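 CHO-K1/receptor/aequorin/Gq/i5 cells, F-12 Ham + 10% FBS. Ca2+ release read on FLIPR Tetra. EC50 by nonlinear fit after normalizing to phospho-fingolimod reference curve.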

[2] = molecular target: T2, human S1PR1 (Homo sapiens, UniProt P21453); test: Intracellular Ca2+ release (FLIPR) agonist potency, S1P1
T2 construct: host or cells: CHO-K1
Method in brief: as §1

[3] = molecular target: T3, human S1PR5 (Homo sapiens, UniProt Q9H228); test: Intracellular Ca2+ release (FLIPR) agonist potency, S1P5; settings: recombinant CHO-K1 cells expressing human S1PR5, aequorin, Gq/i5, Calcium 5 FLIPR
T3 construct: host or cells: CHO-K1
Method in brief: as §1

[4] = recombinant CHO-K1 cells expressing human S1PR4, aequorin, Gq/i5, Calcium 5 FLIPR, read-out: S1P4 EC50
[5] = recombinant CHO-K1 cells expressing human S1PR1, aequorin, Gq/i5, Calcium 5 FLIPR, read-out: S1P1 EC50

T3 sequence (Q9H228 whole entry): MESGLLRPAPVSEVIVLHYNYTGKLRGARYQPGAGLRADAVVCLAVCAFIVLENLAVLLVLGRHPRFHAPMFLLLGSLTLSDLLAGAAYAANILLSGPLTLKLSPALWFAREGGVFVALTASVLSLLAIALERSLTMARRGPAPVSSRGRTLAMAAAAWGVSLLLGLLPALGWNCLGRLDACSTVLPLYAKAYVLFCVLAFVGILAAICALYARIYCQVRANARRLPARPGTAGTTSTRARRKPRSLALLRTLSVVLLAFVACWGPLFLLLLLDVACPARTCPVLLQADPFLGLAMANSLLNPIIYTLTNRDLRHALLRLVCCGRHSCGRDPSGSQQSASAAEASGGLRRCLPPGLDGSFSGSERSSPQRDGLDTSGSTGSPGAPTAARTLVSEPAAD
T2 sequence (P21453 whole entry): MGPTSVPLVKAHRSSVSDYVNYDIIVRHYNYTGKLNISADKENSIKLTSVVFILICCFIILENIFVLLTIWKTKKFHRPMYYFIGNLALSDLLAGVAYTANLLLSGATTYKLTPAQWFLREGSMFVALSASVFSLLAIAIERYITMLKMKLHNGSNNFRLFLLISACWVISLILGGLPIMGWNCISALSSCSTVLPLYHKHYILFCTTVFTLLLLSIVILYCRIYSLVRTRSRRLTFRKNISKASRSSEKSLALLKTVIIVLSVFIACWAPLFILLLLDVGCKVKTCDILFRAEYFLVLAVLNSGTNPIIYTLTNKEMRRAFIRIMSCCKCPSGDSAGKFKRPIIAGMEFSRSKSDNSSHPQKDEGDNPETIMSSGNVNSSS

Structure (SMILES) | pEC50 [1] | pEC50 [2] | pEC50 ([3]; S1P5 EC50 range) | pEC50 [1, 4] | pEC50 [2, 5] | pEC50 ([3]; read-out: S1P5 EC50 range)
CCc1cccc(F)c1COc1ccc2c(c1)OC[C@@H](NCc1cc(O)no1)C2 [Compound 136, (S)-5-(((7-((2-ethyl-6-fluorobenzyl)oxy)chroman-3-yl)amino)methyl)isoxazol-3-ol] | > 6.00 | < 6.00 | > 8.00 |  |  | 
CC1(C(=O)O)CN([C@@H]2COc3cc(OCc4c(Cl)cccc4Cl)ccc3C2)C1 [Compound 138, (S)-1-(7-((2,6-dichlorobenzyl)oxy)chroman-3-yl)-3-methylazetidine-3-carboxylic acid] |  |  |  | < 6.00 | < 6.00 | > 8.00
CCc1cccc(F)c1COc1ccc2c(c1)OC[C@@H](N1CC(C)(C(=O)O)C1)C2 [Compound 139, (S)-1-(7-((2-ethyl-6-fluorobenzyl)oxy)chroman-3-yl)-3-methylazetidine-3-carboxylic acid] |  |  |  | > 6.00 | < 6.00 | > 8.00
CCC1(C(=O)O)CN([C@@H]2COc3cc(OCc4c(Cl)cccc4Cl)ccc3C2)C1 [Compound 140, (S)-1-(7-((2,6-dichlorobenzyl)oxy)chroman-3-yl)-3-ethylazetidine-3-carboxylic acid] |  |  |  | < 6.00 | < 6.00 | 5.00 to 6.00
CCCC1(C(=O)O)CN([C@@H]2COc3cc(OCc4c(Cl)cccc4Cl)ccc3C2)C1 [Compound 141, (S)-1-(7-((2,6-dichlorobenzyl)oxy)chroman-3-yl)-3-propylazetidine-3-carboxylic acid] |  |  |  | < 6.00 | < 6.00 | 5.00 to 6.00
CCc1cccc(Cl)c1COc1ccc2c(c1)CCC(OCC(=O)O)C2 (stereo not drawn) [Compound 142] |  |  |  | < 6.00 | < 6.00 | > 8.00
O=C(O)COC1CCc2cc(OCc3c(Cl)cccc3C3CC3)ccc2C1 (stereo not drawn) [Compound 143, 2-((6-((2-chloro-6-cyclopropylbenzyl)oxy)-1,2,3,4-tetrahydronaphthalen-2-yl)oxy)acetic acid] |  |  |  | < 6.00 | < 6.00 | > 8.00
CCCc1ccc(COc2ccc3c(c2)OCC(N2CC(C(=O)O)C2)C3)c(OC)c1 (stereo not drawn) [Compound 148, 1-(7-((2-methoxy-4-propylbenzyl)oxy)chroman-3-yl)azetidine-3-carboxylic acid] |  |  |  | < 6.00 | < 6.00 | 5.00 to 6.00
Cc1ccc(F)c(COc2ccc3c(c2)CCC(OCC(=O)O)C3)c1F (stereo not drawn) [Compound 149, 2-[6-[(2,6-difluoro-3-methyl-phenyl)methoxy]tetralin-2-yl]oxyacetic acid] |  |  |  | < 6.00 | < 6.00 | 5.00 to 6.00
Cc1ccc(Cl)c(COc2ccc3c(c2)CCC(OCC(=O)O)C3)c1F (stereo not drawn) [Compound 150, 2-[6-[(6-chloro-2-fluoro-3-methyl-phenyl)methoxy]tetralin-2-yl]oxyacetic acid] |  |  |  | < 6.00 | < 6.00 | 5.00 to 6.00
O=C(O)COC1CCc2cc(OCc3cc(C(F)(F)F)ccc3Cl)ccc2C1 (stereo not drawn) [Compound 151, 2-[6-[[2-chloro-5-(trifluoromethyl)phenyl]methoxy]tetralin-2-yl]oxyacetic acid] |  |  |  | < 6.00 | < 6.00 | 5.00 to 6.00
COc1cccc(COc2ccc3c(c2)CCC(OCC(=O)O)C3)c1 (stereo not drawn) [Compound 154, 2-[6-[(3-methoxyphenyl)methoxy]tetralin-2-yl]oxyacetic acid] |  |  |  | < 6.00 | < 6.00 | 5.00 to 6.00
Cc1ccc(F)cc1COc1ccc2c(c1)CCC(OCC(=O)O)C2 (stereo not drawn) [Compound 155, 2-[6-[(5-fluoro-2-methyl-phenyl)methoxy]tetralin-2-yl]oxyacetic acid] |  |  |  | < 6.00 | < 6.00 | 5.00 to 6.00
Cc1cc(C)cc(COc2ccc3c(c2)CCC(OCC(=O)O)C3)c1 (stereo not drawn) [Compound 156, 2-[6-[(3,5-dimethylphenyl)methoxy]tetralin-2-yl]oxyacetic acid] |  |  |  | < 6.00 | < 6.00 | 5.00 to 6.00
COc1cccc(F)c1COc1ccc2c(c1)CCC(OCC(=O)O)C2 (stereo not drawn) [Compound 157, 2-[6-[(2-fluoro-6-methoxy-phenyl)methoxy]tetralin-2-yl]oxyacetic acid] |  |  |  | < 6.00 | < 6.00 | 5.00 to 6.00
O=C(O)COC1CCc2cc(OCc3c(F)cccc3C(F)(F)F)ccc2C1 (stereo not drawn) [Compound 158, 2-[6-[[2-fluoro-6-(trifluoromethyl)phenyl]methoxy]tetralin-2-yl]oxyacetic acid] |  |  |  | < 6.00 | < 6.00 | 5.00 to 6.00
O=C(O)COC1CCc2cc(OCc3c(F)cccc3F)ccc2C1 (stereo not drawn) [Compound 159, 2-[6-[(2,6-difluorophenyl)methoxy]tetralin-2-yl]oxyacetic acid] |  |  |  | < 6.00 | < 6.00 | 5.00 to 6.00

Structure (SMILES) | pEC50 [1] | pEC50 [2] | pEC50 ([3]; S1P5 EC50 range) | pEC50 [1, 4] | pEC50 [2, 5] | pEC50 ([3]; read-out: S1P5 EC50 range)
Cc1ccc(F)c(COc2ccc3c(c2)CCC(OCC(=O)O)C3)c1 (stereo not drawn) [Compound 160, 2-[6-[(2-fluoro-5-methyl-phenyl)methoxy]tetralin-2-yl]oxyacetic acid] |  |  |  | < 6.00 | < 6.00 | 6.00 to 7.00
O=C(O)COC1CCc2cc(OCc3ccc(Cl)cc3Cl)ccc2C1 (stereo not drawn) [Compound 162, 2-[6-[(2,4-dichlorophenyl)methoxy]tetralin-2-yl]oxyacetic acid] |  |  |  | < 6.00 | < 6.00 | 5.00 to 6.00
O=C(O)COC1CCc2cc(OCc3cc(F)ccc3F)ccc2C1 (stereo not drawn) [Compound 163, 2-[6-[(2,5-difluorophenyl)methoxy]tetralin-2-yl]oxyacetic acid] |  |  |  | < 6.00 | < 6.00 | 6.00 to 7.00
O=C(O)COC1CCc2cc(OCc3cc(Cl)ccc3Cl)ccc2C1 (stereo not drawn) [Compound 164, 2-[6-[(2,5-dichlorophenyl)methoxy]tetralin-2-yl]oxyacetic acid] |  |  |  | < 6.00 | < 6.00 | 5.00 to 6.00
COc1ccc(COc2ccc3c(c2)CCC(OCC(=O)O)C3)cc1 (stereo not drawn) [Compound 165, 2-[6-[(4-methoxyphenyl)methoxy]tetralin-2-yl]oxyacetic acid] |  |  |  | < 6.00 | < 6.00 | 5.00 to 6.00
COc1ccc(F)cc1COc1ccc2c(c1)CCC(OCC(=O)O)C2 (stereo not drawn) [Compound 166, 2-[6-[(5-fluoro-2-methoxy-phenyl)methoxy]tetralin-2-yl]oxyacetic acid] |  |  |  | < 6.00 | < 6.00 | 6.00 to 7.00
O=C(O)COC1CCc2cc(OCc3c(F)cccc3Cl)ccc2C1 (stereo not drawn) [Compound 169, 2-[6-[(2-chloro-6-fluoro-phenyl)methoxy]tetralin-2-yl]oxyacetic acid] |  |  |  | < 6.00 | < 6.00 | 6.00 to 7.00
COc1ccccc1COc1ccc2c(c1)CCC(OCC(=O)O)C2 (stereo not drawn) [Compound 170, 2-[6-[(2-methoxyphenyl)methoxy]tetralin-2-yl]oxyacetic acid] |  |  |  | < 6.00 | < 6.00 | 5.00 to 6.00
O=C(O)COC1CCc2cc(OCc3cc(F)ccc3Cl)ccc2C1 (stereo not drawn) [Compound 171, 2-[6-[(2-chloro-5-fluoro-phenyl)methoxy]tetralin-2-yl]oxyacetic acid] |  |  |  | < 6.00 | < 6.00 | 5.00 to 6.00
O=C(O)COC1CCc2cc(OCc3cc(C(F)(F)F)ccc3F)ccc2C1 (stereo not drawn) [Compound 172, 2-[6-[[2-fluoro-5-(trifluoromethyl)phenyl]methoxy]tetralin-2-yl]oxyacetic acid] |  |  |  | < 6.00 | < 6.00 | 5.00 to 6.00
O=C(O)COC1CCc2cc(OCc3cc(Cl)ccc3F)ccc2C1 (stereo not drawn) [Compound 174, 2-[6-[(5-chloro-2-fluoro-phenyl)methoxy]tetralin-2-yl]oxyacetic acid] |  |  |  | < 6.00 | < 6.00 | 5.00 to 6.00
COc1ccc(Cl)cc1COc1ccc2c(c1)CCC(OCC(=O)O)C2 (stereo not drawn) [Compound 176, 2-[6-[(5-chloro-2-methoxy-phenyl)methoxy]tetralin-2-yl]oxyacetic acid] |  |  |  | < 6.00 | < 6.00 | 5.00 to 6.00
Cc1ccccc1COc1ccc2c(c1)CCC(OCCC(=O)O)C2 (stereo not drawn) [Compound 179, 3-[6-(o-tolylmethoxy)tetralin-2-yl]oxypropanoic acid] |  |  |  | < 6.00 | < 6.00 | 5.00 to 6.00
O=C(O)CCOC1CCc2cc(OCc3cccc(F)c3)ccc2C1 (stereo not drawn) [Compound 180, 3-[6-[(3-fluorophenyl)methoxy]tetralin-2-yl]oxypropanoic acid] |  |  |  | < 6.00 | < 6.00 | 5.00 to 6.00
O=C(O)CCOC1CCc2cc(OCc3ccc(Cl)c(Cl)c3)ccc2C1 (stereo not drawn) [Compound 181, 3-[6-[(3,4-dichlorophenyl)methoxy]tetralin-2-yl]oxypropanoic acid] |  |  |  | < 6.00 | < 6.00 | 5.00 to 6.00
CSc1ccc(COc2ccc3c(c2)CCC(OCCC(=O)O)C3)cc1 (stereo not drawn) [Compound 182, 3-[6-[(4-methylsulfanylphenyl)methoxy]tetralin-2-yl]oxypropanoic acid] |  |  |  | < 6.00 | < 6.00 | 5.00 to 6.00

From US10280159B2 (AbbVie Deutschland GmbH & Co. KG, priority 2015, dated 2019)
